Target: ATP-dependent translocase ABCB1 (Homo sapiens, UniProt P08183)
Assay: TP_TRANSPORTER: cell accumulation of doxorubicin in the presence of Azithromycin at a concentration of 0.3uM and 1mM in K562/ADR cells
Type: functional, cell-based

ATP-dependent translocase ABCB1, sequence (P08183 whole entry): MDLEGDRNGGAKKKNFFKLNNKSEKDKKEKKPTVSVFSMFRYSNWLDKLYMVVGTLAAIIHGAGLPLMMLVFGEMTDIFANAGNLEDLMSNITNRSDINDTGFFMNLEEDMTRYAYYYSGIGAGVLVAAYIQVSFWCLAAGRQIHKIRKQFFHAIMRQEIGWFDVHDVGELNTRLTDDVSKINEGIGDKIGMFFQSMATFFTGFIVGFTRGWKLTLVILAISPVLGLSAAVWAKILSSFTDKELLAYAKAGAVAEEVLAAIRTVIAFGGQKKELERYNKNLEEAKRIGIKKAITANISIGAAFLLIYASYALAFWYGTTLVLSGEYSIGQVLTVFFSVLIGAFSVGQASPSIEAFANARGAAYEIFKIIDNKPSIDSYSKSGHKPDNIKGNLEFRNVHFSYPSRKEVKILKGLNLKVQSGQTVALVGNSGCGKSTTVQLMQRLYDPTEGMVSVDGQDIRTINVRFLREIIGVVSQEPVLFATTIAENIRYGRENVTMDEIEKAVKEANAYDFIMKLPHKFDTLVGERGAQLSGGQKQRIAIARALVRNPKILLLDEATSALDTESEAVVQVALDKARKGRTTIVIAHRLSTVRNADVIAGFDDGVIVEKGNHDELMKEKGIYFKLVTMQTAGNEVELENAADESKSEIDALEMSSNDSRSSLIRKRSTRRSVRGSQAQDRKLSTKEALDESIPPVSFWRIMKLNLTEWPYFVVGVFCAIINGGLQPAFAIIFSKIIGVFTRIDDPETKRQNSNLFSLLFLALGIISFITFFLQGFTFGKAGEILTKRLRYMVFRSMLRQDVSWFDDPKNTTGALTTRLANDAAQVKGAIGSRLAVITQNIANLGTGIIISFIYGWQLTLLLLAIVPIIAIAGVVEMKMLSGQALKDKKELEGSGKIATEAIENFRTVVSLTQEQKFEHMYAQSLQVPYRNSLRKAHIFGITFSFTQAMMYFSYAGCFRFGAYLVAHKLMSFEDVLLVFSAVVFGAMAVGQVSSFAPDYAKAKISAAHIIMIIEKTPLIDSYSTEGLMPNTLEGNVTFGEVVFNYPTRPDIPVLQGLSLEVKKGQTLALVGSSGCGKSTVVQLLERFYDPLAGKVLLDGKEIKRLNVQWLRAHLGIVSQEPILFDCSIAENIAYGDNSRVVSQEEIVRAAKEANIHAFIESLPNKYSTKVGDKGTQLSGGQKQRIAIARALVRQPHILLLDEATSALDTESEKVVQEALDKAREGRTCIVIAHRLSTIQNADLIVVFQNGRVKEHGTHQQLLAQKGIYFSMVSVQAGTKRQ

Activity: inhibitor [+]
SMILES: CC[C@H]1OC(=O)[C@H](C)[C@@H](O[C@H]2C[C@@](C)(OC)[C@@H](O)[C@H](C)O2)[C@H](C)[C@@H](O[C@@H]2O[C@H](C)C[C@H](N(C)C)[C@H]2O)[C@](C)(O)C[C@@H](C)CN(C)[C@H](C)[C@@H](O)[C@]1(C)O [AZITHROMYCIN]

— ChEMBL document CHEMBL2074566, “Azithromycin reverses anticancer drug resistance and modifies hepatobiliary excretion of doxorubicin in rats” (Eur J Pharmacol, 2004)
